Laboratory results taken from paper doi:10.1101/2025.02.17.638454, “Synergistic RAS-MAPK and AKT Activation in MYC-Driven Tumors via Adjacent PVT1 Rearrangements” (bioRxiv, 2025).
No end group written: not given here.

What was measured:
[1] = target: T1, recombinant KRAS protein (Homo sapiens, UniProt P01116); assay: Isothermal titration calorimetry of HNB into recombinant KRAS; format: binding; conditions: ITC, pH 8.0, 25°C, N 1 (fixed)
T1 construct: purchased Abcam ab156968
Procedure: Isothermal titration calorimetry (ITC) measures the change in temperature when two or more biomolecules bind to each other in a solution. The assay provides the binding affinity of ligands to proteins and the entropy or enthalpy of the reaction. Recombinant KRAS protein (#ab156968, Abcam) was dialyzed into the ITC assay buffer (20mM Tris pH 8.0, 100mM NaCl, 5mM Beta-mercaptoethanol) and concentrated to about 100 μM. During ITC titration twenty 6 μl injections (with intervals of 150 seconds) of 500μM HNB were made into the ITC cell containing 93 μM KRAS. Titration of 500μM HNB into the ITC assay buffer under the same conditions was used as the baseline control. ITC experiments were performed using Affinity ITC instrument (TA Instruments) at 25°C. The data was fitted and analyzed using NanoAnalyze software provided by TA Instruments. […]
(§1) bioRxiv preprint doi: https://doi.org/10.1101/2025.02.17.638454; this version posted February 22, 2025. The copyright holder for this preprint (which was not certified by peer review) is the author/funder, who has granted bioRxiv a license to display the preprint in perpetuity. It is made available under aCC-BY 4.0 International license. […]

[2] = test system: HALLMARK_MYC_TARGETS; assay: GSEA MYC targets, SK-PN-DW; format: cell-based, human; conditions: si.CircPVT1 vs si.Ctrl, n=3, Padj = 0.010
Excerpt: (§2) RNAseq processing: Raw reads were mapped to the hg19 human reference genome using the STAR aligner (v.2.5.0a) 66. PCR-duplicated reads and low mapping quality reads (MQ score below 20) were removed using Picard tools and SAMtools, respectively. Aligned reads were counted using htseq-count (v.0.6.1p1) 69 and normalized according to size factors method from DESeq2 70. We used fold change ≥2 and FDR <0.05 as the determination of differentially expressed genes (DEG). […]
Supplementary Figure 9: Gene set enrichment analysis scores (GSEA) analysis for MYC targets genes in COLODM320 (A,B) and SK-PN-DW (C,D) treated with si.CircPVT 1. si.Ctrl was used as control . n=3, for each treatment condition .
(also on this page, place not known: Enrichment Score Enrichment Score si.CircPVT1. control. condition. Enrichment Score Enrichment Score .CC-BY licenseavailable preprintthis https://doi.org/10.1101/2025.02.17.638454doi:) […]

[3] = test system: FFX; assay: Western blot of FFX in D458; format: cell-based, human; conditions: D458, siRNA vs si.Ctrl, anti-FFX antibody
Procedure: For whole-cell lysate, the cell pellet was resuspended in RIPA buffer (Cell Signaling Technologies, Danvers, MA) supplemented with a protease inhibitor cocktail (Cell Signaling Technologies) and incubated on ice for 20 minutes. The lysate was then centrifuged at 14,000 revolutions/minute for 10 minutes at 4°C, and the supernatant was harvested. Protein concentration was quantified by BCA Protein Assay Kit (Thermo Fisher Scientific) as per kit protocol. Next, 20 μg of whole-cell lysate was electrophoresed on a 4%–20% gradient polyacrylamide gel with SDS (Bio-Rad, Hercules, CA) and electroblotted onto polyvinylidene difluoride membranes (Bio-Rad). Membranes were blocked in Tris-buffered saline with 5% nonfat milk and 0.1% Tween and probed with antibodies. Bound proteins were detected with horseradish-peroxidase–conjugated secondary antibodies (Cell Signaling Technologies) and SuperSignal West Femto (Thermo Fisher Scientific). […]

[4] = test system: HALLMARK_MTORC1_SIGNALING; assay: GSEA MTORC1 signaling, SK-PN-DW; format: cell-based, human; conditions: si.CircPVT1 vs si.Ctrl, n=3, Padj = 0.010
Excerpt: as §2, with “(DEG). Statistical analysis and plots were performed inside R environment version 3.1.0. upload files)” for “(DEG).”
as §1, with “a CC-BY” for “aCC-BY”, “license .” for “license.”
Supplementary Figure 11: Gene set enrichment analysis scores (GSEA) analysis of genes involved in MTORC 1 signaling in COLO320DM (A) and SK-PN-DW (B) treated with si.CircPVT 1. si.Ctrl was used as control. n=3, for each treatment condition .
(also on this page, place not known: SK-PN-DWB MTORC1 si.CircPVT1. condition. Enrichment Score Enrichment Score .CC-BY licenseavailable preprintthis https://doi.org/10.1101/2025.02.17.638454doi:) […]

T1 sequence (P01116 1-188 isoform P01116-2): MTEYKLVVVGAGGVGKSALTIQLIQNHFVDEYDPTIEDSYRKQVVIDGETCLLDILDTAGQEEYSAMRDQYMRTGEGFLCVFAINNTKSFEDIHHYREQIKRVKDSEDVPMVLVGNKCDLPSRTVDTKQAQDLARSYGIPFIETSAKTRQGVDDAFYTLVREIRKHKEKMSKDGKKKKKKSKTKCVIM

| Substance | -TDS [1] [kcal/mol] | DH [1] [kcal/mol] | NES, HALLMARK_MYC_TARGETS_V1 [2] | NES, HALLMARK_MYC_TARGETS_V2 [2] | FFX protein expression [3] | NES, HALLMARK_MTORC1_SIGNALING [4] |
| --- | --- | --- | --- | --- | --- | --- |
| MKTQLGAVKGFLHV [HNB] | -0.7 ± 1.5 | -4 ± 2 | – | – | – | – |
| si.CircPVT1: siRNA targeting the junction sequence of CircPVT1, 5’-UGGGCUUGAGGCCUGAUCUUU-3’ (other strand not given here) | – | – | -1.653 | -1.789 | significantly reduced the protein | -1.859 |
